# Reference: patent EP0545103A1, “Insecticidal, acaricidal and molluscicidal 1-(substituted) thioalkylpyrroles” (priority 1991, dated 1993)
# Assays:
# Type in all cases: in vivo
# Design in all cases: key: 0: no effect; 10-25% kill; 26-35% kill; 36-45% kill; 46-55% kill; 56-65% kill; 66-75% kill; 76-85% kill; 86-99% kill; 9: 100% kill
# [1] = test system: Heliothis virescens, 3rd instar tobacco budworm; test: Tobacco budworm 3rd instar test, dipped cotton cotyledons; conditions: mortality rating after 3 days
# Method in brief: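 Rating-scale scores of mortality and reduced feeding, taken 3 days after single third-instar larvae were caged on dried cotton cotyledon quarters. Cotyledons were pre-dipped in test solutions diluted with water from a 10,000 ppm stock in 35% acetone.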
# [2] = test system: Empoasca abrupta, adult, western potato leafhopper; test: Western potato leafhopper contact test, dipped limabean leaf
# Method in brief: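 Sieva limabean leaf dipped 3 s in compound solution (diluted in water from 10,000 ppm stock in 35% acetone), dried, and infested with about 10 adult leafhoppers on moist filter paper. Mortality counted after 2 days and scored on a rating scale.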
# [3] = test system: Empoasca abrupta, adult, western potato leafhopper; test: Western potato leafhopper systemic uptake test; conditions: 100 ppm
# Method in brief: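 Leafhopper mortality, rated on a scale, scored 2 days after about 10 adults were confined with a leaf in a moist dish. The leaf came from a cut lima bean stem that had taken up the compound emulsion (100 ppm and 10-fold dilutions) over 3 days at 27 °C.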
# [4] = test system: Aphis fabae, mixed instar, bean aphid; test: Bean aphid spray test on nasturtium; conditions: 100 ppm
# Method in brief: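 Mortality rated on a scale 2 days after treatment of aphid-infested (100-200 per plant, infested a day earlier) ~5 cm nasturtiums sprayed to complete coverage. Spray solutions: 10,000 ppm compound in 35% acetone in water, with further water dilutions.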
# [5] = 10 ppm, contact, rating scale 0-9
# [6] = 100 ppm, contact, rating scale 0-9
# [7] = systemic uptake, rating scale 0-9
# [8] = 10 ppm, mortality rating after 2 days
# [9] = 100 ppm, mortality rating after 2 days
# [10] = cut stem in emulsion 3 days, mortality rating after 2 days
# [11] = spray, mortality rating after 2 days
SMILES,TOBACCO BUDWORM 3rd Instar ([1]; 10 ppm),"LEAFHOPPER Contact [2, 5]","LEAFHOPPER Contact [2, 6]","LEAFHOPPER Systemic [3, 7]",APHIDS ([4]; rating scale 0-9),"LEAFHOPPER Contact [2, 8]","LEAFHOPPER Contact [2, 9]","LEAFHOPPER Systemic [3, 10]","APHIDS [4, 11]",TOBACCO BUDWORM 3rd Instar ([1]; 100 ppm),TOBACCO BUDWORM 3rd Instar ([1]; 1000 ppm)
CC1(C)CN=C(SCn2c(-c3ccc(Cl)cc3)c(C#N)c(Br)c2C(F)(F)F)NC1 [Example 10],0,0,7 (76-85% kill),6 (66-75% kill),0,,,,,,
CSCn1c(-c2ccc(Cl)cc2)c(C#N)c(Br)c1C(F)(F)F [Example 25],,,,,,0,9 (100% kill),0,0,,
CN=C(NC)SCn1c(-c2ccc(Cl)cc2)c(C#N)c(Cl)c1C(F)(F)F [Example 2],9 (100% kill),,,,,,,0,0,9 (100% kill),9 (100% kill)
N#Cc1c(Br)c(C(F)(F)F)n(CSC2=NCCS2)c1-c1ccc(Cl)cc1 [Example 16],9 (100% kill),9 (100% kill),9 (100% kill),0,8 (86-99% kill),,,,,9 (100% kill),9 (100% kill)
N#Cc1c(Br)c(Br)n(CSC2=NCCCN2)c1Br [Example 13],,,0,0,0,,,,,,0
CN=C(NC)SCn1c(Cl)c(Cl)c(C#N)c1-c1ccc(Cl)c(Cl)c1 [Example 15],0,0,6 (66-75% kill),0,0,,,,,,
FC(F)(F)c1c(Br)c(-c2ccc(Cl)c(Cl)c2)n(CSC2=NCCCN2)c1C(F)(F)F [Example 17],,,5 (56-65% kill),0,0,,,,,,
CN=C(NC)SCn1c(Br)c(Br)c(C#N)c1Br [Example 14],,,0,7 (76-85% kill),0,,,,,0,8 (86-99% kill)
N=C(N)SCn1c(-c2ccc(Cl)c(Cl)c2)c(Br)c(C(F)(F)F)c1C(F)(F)F [Example 18],0,,,0,0,,,,,9 (100% kill),9 (100% kill)
N#Cc1c(Cl)c(C(F)(F)F)n(CSC2=NCCN2)c1-c1ccc(Cl)cc1 [Example 4],9 (100% kill),,,,,0,9 (100% kill),0,0,9 (100% kill),9 (100% kill)
CCOC(=S)SCn1c(-c2ccc(Cl)cc2)c(C#N)c(Br)c1C(F)(F)F [Example 29],,9 (100% kill),9 (100% kill),0,0,,,,,,
